# Target: T1, PLCγ2 (Homo sapiens, UniProt P16885)
# T1 sequence (P16885 1-1195): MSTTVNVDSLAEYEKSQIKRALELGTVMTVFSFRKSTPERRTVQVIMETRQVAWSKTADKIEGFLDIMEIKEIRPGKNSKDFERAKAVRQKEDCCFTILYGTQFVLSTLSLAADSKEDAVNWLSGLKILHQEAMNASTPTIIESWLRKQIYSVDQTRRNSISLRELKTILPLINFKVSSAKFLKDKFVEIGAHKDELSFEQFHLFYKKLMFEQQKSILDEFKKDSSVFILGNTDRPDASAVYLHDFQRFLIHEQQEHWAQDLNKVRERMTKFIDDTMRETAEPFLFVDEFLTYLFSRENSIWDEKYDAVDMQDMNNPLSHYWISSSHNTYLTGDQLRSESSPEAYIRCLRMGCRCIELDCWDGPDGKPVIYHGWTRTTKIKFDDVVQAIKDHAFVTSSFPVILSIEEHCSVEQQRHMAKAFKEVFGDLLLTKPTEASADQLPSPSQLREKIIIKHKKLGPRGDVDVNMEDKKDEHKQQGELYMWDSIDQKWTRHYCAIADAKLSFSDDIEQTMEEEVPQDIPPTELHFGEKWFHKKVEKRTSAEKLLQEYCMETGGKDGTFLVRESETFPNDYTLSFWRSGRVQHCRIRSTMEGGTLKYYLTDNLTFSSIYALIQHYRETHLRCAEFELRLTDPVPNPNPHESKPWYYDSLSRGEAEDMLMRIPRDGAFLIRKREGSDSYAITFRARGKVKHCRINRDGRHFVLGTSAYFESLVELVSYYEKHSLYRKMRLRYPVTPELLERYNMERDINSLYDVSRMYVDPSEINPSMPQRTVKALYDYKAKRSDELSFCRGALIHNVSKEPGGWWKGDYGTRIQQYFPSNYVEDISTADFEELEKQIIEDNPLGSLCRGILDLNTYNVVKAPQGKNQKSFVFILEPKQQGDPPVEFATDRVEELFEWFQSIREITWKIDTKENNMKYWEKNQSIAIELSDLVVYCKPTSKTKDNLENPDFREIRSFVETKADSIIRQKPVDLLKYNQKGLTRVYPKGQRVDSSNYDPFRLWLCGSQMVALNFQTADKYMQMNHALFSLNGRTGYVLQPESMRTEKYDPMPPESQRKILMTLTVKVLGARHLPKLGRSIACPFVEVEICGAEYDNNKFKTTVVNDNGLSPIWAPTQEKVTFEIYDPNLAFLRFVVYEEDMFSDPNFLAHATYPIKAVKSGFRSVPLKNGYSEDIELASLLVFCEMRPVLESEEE
# Assay: inhibition of C8CF3-coumarin processing by purified enzyme
# Assay type: biochemical
smiles,measurement,value
Nc1ncnc2c1ncn2[C@@H]1O[C@H](COP(=O)(O)OP(=O)(O)OP(=O)(O)O)[C@@H](O)[C@H]1O [adenosine triphosphate],IC50,27.2 µM

# — PMC10251139 (SLAS discovery : advancing life sciences R & D, 2023)
